Assay results published in patent US20240018161A1, “MODULATORS OF CYSTIC FIBROSIS TRANSMEMBRANE CONDUCTANCE REGULATOR” (VERTEX PHARMACEUTICALS INCORPORATED, priority 2020, published 2024).
pEC50: −log10 of the molar value. Where two headings read alike, the source gives them in different places.

Biological target: CFTR-mediated chloride transport in human intestinal epithelial enteroid cells (Homo sapiens, UniProt P13569)
Assay: Membrane potential dye, Enteroid Assay A
Assay type: cell-based
Conditions: for pEC50: read-out: Ent. A EC50
In short: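 Membrane potential dye (20 μM methyl oxonol, with 30 μM CaCCinh-A01 and 30 μM Chicago Sky Blue) loaded 25 min at room temperature into ROCK-inhibitor-seeded human enteroid cells. Chloride-free stimulation buffer triggered transport, followed by 15 min fluorescence. % Activity relative to 3 μM/3 μM/300 nM triple-combination control.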

[1] = enteroid cells incubated with test compound 18-24 hours, acute 10 μM forskolin and 300 nM N-[2,4-bis(1,1-dimethylethyl)-5-hydroxyphenyl]-1,4-dihydro-4-oxoquinoline-3-carboxamide
[2] = percentage of chloride transport of triple combination control (3 μM N-[(6-amino-2-pyridyl)sulfonyl]-6-(3-fluoro-5-isobutoxy-phenyl)-2-[(4S)-2,2,4-trimethylpyrrolidin-1-yl]pyridine-3-carboxamide based)

Sequence of CFTR-mediated chloride transport in human intestinal epithelial enteroid cells (P13569 with tags, fused parts or gaps DEL508-508): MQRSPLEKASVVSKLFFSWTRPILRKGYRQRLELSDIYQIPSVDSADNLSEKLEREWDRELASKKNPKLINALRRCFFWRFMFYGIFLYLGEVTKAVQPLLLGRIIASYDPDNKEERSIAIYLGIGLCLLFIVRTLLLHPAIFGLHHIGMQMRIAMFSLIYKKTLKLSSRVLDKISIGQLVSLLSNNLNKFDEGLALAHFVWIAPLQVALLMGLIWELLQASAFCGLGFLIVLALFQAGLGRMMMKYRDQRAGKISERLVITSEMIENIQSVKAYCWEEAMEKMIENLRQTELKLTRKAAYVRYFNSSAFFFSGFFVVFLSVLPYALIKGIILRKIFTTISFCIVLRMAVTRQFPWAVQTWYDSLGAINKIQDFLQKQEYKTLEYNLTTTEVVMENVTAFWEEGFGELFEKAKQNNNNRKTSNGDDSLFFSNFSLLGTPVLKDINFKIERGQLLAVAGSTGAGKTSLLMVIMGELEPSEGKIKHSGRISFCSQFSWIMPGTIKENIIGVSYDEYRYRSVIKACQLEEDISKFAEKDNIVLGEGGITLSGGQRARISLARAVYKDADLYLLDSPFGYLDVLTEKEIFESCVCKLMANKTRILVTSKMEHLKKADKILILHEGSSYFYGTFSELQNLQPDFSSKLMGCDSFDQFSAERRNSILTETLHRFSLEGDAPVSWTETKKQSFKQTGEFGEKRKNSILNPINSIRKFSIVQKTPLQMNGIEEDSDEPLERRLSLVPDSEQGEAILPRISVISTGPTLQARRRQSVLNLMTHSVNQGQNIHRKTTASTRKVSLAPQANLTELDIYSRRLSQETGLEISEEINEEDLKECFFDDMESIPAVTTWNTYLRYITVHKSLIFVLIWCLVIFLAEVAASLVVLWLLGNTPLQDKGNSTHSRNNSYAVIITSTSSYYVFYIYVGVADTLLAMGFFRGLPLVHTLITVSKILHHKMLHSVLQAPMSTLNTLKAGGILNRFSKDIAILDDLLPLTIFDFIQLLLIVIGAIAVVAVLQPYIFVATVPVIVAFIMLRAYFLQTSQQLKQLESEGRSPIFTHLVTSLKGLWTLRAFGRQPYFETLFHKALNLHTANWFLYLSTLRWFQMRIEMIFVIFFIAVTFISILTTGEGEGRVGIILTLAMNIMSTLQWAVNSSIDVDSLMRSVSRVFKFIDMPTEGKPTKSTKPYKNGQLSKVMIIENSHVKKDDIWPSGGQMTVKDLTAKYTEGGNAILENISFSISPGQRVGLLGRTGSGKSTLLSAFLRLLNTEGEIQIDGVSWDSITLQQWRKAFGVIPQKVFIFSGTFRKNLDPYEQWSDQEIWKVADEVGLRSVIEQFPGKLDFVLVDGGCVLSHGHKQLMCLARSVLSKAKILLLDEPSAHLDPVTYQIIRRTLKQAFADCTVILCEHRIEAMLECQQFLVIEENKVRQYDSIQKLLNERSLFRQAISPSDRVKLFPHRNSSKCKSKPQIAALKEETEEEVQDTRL

SMILES | pEC50 [1] | Ent. A Max Activity (%) [2] | Ent. A Max Activity (%) (Enteroid Assay A) | pEC50 (Enteroid Assay A)
CNc1ccc(CN2CCN3CC(C2)Oc2cc(-c4c(C)cccc4C)nc(n2)NS(=O)(=O)c2cccc(c2)C3=O)cn1 (centres unmarked) [Compound 47] | 4.52 to 5.52 | +++ (+++ is >60%) |  | 
Cc1cccc(C)c1-c1cc2nc(n1)NS(=O)(=O)c1cccc(c1)C(=O)N1C[C@@H](CN(CC(C)(C)C)C[C@@H]1CC(C)C)O2 [Compound 151] |  |  | ++ (++ is 30-60%) | > 6.00
Cc1cccc(C)c1-c1cc2nc(n1)NS(=O)(=O)c1cccc(c1)C(=O)N1Cc3ccccc3C(C1)O2 (centres unmarked) [Compound 325] | > 6.00 | +++ (+++ is >60%) |  | 
Cc1cccc(C)c1-c1cc2nc(n1)NS(=O)(=O)c1cccc(c1)C(=O)N1CCN(Cc3cccnc3)C[C@@H]1CO2 [Compound 282] | 4.52 to 5.52 | ++ (++ is 30-60%) |  | 
Cc1cccc(C)c1-c1cc2nc(n1)NS(=O)(=O)c1cccc(c1)C(=O)N1CCN(Cc3ccn(C)n3)C[C@@H]1CO2 [Compound 285] |  | ++ (++ is 30-60%) |  | 
Cc1cccc(C)c1-c1cc2nc(n1)NS(=O)(=O)c1cccc(c1)C(=O)N1CCN(Cc3ccccc3O)C[C@@H]1CO2 [Compound 271] | > 6.00 | +++ (+++ is >60%) |  | 
Cc1cccc(C)c1-c1cc2nc(n1)NS(=O)(=O)c1cccc(c1)C(=O)N1CCN(C3CCC(C)(C)C3)C[C@H](C1)O2 (single isomer, unassigned) [Compound 36] |  |  | +++ (+++ is >600%) | > 6.00
Cc1cccc(C)c1-c1cc2nc(n1)NS(=O)(=O)c1cccc(c1)C(=O)N1C[C@@H](CNC[C@@H]1CC(C)(C)C)O2 [Compound 135, (16R,20S)-12-(2,6-Dimethylphenyl)-20-(2,2-dimethylpropyl)-15-oxa-8λ^6-thia-1,9,11,18,22-pentaazatetracyclo[14.4.1.13,7.110,14]tricosa-3(23),4,6,10(22),11,13-hexaene-2,8,8-trione] |  |  | ++ (++ is 30-60%) | > 6.00
Cc1cccc(C)c1-c1cc2nc(n1)NS(=O)(=O)c1cccc(c1)C(=O)N1CCN(C3CCC4CC43)C[C@H](C1)O2 (some centres unmarked) [Compound 15] |  |  | +++ (+++ is >600%) | > 6.00
Cc1cccc(C)c1-c1cc2nc(n1)NS(=O)(=O)c1cccc(c1)C(=O)N1CCN(C(=O)CCN3CCCC3=O)CC1CO2 (centres unmarked) [Compound 306] |  | + (+ is <300%) |  | 
Cc1cccc(C)c1-c1cc2nc(n1)NS(=O)(=O)c1cccc(c1)C(=O)N1C[C@@H](CN(C3CCC(F)(F)CC3)C[C@@H]1CC(C)C)O2 [Compound 152] |  |  | ++ (++ is 30-60%) | > 6.00
Cc1cccc(C)c1-c1cc2nc(n1)NS(=O)(=O)c1cccc(c1)C(=O)N1CCN([C@H]3CC[C@@H](F)CC3)C[C@H](C1)O2 (single isomer, unassigned) [Compound 39] |  |  | +++ (+++ is >600%) | 5.52 to 6.00
Cc1cccc(C)c1-c1cc2nc(n1)NS(=O)(=O)c1cccc(c1)C(=O)N1Cc3ccccc3C[C@@H]1CO2 [Compound 211, (12R)-17-(2,6-Dimethylphenyl)-14-oxa-21λ^6-thia-3,18,20,27-tetraazapentacyclo[20.3.1.115,19.03,12.05,10]heptacosa-1(26),5(10),6,8,15(27),16,18,22,24-nonaene-2,21,21-trione] | > 6.00 | +++ (+++ is >60%) |  | 
Cc1cccc(C)c1-c1cc2nc(n1)NS(=O)(=O)c1cccc(c1)C(=O)N1CCN(C3C(C)(C)CC3(C)C)C[C@H](C1)O2 [Compound 20] |  |  | +++ (+++ is >600%) | > 6.00
Cc1cccc(C)c1-c1cc2nc(n1)NS(=O)(=O)c1cccc(c1)C(=O)N1Cc3cc(C(C)(C)C)ccc3[C@@H](O2)[C@H]1CC(C)C [Compound 185, (16R,24R)-20-tert-butyl-12-(2,6-dimethylphenyl)-24-(2-methylpropyl)-15-oxa-8λ^6-thia-1,9,11,25-tetraazapentacyclo[14.7.1.13,7.110,14.017,22]hexacosa-3,5,7(26),10,12,14(25),17,19,21-nonaene-2,8,8-trione] |  |  | +++ (+++ is >600%) | > 6.00
Cc1cccc(C)c1-c1cc2nc(n1)NS(=O)(=O)c1cccc(c1)C(=O)N1CCN(Cc3ccccc3)C[C@@H](C1)O2 [Compound 68, (16S)-18-benzyl-12-(2,6-dimethylphenyl)-15-oxa-8λ^6-thia-1,9,11,18,22-pentaazatetracyclo[14.4.1.13,7.110,14]tricosa-3(23),4,6,10,12,14(22)-hexaene-2,8,8-trione] | 5.52 to 6.00 | + (+ is <300%) |  | 

SMILES | pEC50 [1] | Ent. A Max Activity (%) [2] | Ent. A Max Activity (%) (Enteroid Assay A) | pEC50 (Enteroid Assay A)
Cc1cccc(C)c1-c1cc2nc(n1)NS(=O)(=O)c1cccc(c1)C(=O)N1CCN(CC3C4(CC4)C34CC4)C[C@H](C1)O2 [Compound 17] |  |  | +++ (+++ is >600%) | > 6.00
Cc1cccc(C)c1-c1cc2nc(n1)NS(=N)(=O)c1cccc(c1)C(=O)N1CCNCC(C1)O2 (centres unmarked) [Compound 241, 12-(2,6-Dimethylphenyl)-8-imino-15-oxa-8λ^6-thia-1,9,11,18,22-pentaazatetracyclo[14.4.1.13,7.110,14]tricosa-3,5,7(23),10,12,14(22)-hexaene-2,8-dione] |  |  | + (+ is <30%) | 
Cc1cccc(C)c1-c1cc2nc(n1)NS(=O)(=O)c1cccc(c1)C(=O)N1CCN(C(=O)NC3CCCCCC3)C[C@@H]1CO2 [Compound 166, (8R)—N-Cycloheptyl-13-(2,6-dimethylphenyl)-2,17,17-trioxo-10-oxa-17λ^6-thia-3,6,14,16,23-pentaazatetracyclo[16.3.1.111,15.03,8]tricosa-1(21),11,13,15(23),18(22),19-hexaene-6-carboxamide] | 4.52 to 5.52 | +++ (+++ is >60%) |  | 
Cc1cccc(C)c1-c1cc2nc(n1)NS(=O)(=O)c1cccc(c1)C(=O)N1CCN(Cc3ccccc3)CC(O2)C1CC(C)C (single isomer, unassigned) [Compound 89, 18-benzyl-12-(2,6-dimethylphenyl)-21-(2-methylpropyl)-15-oxa-8λ^6-thia-1,9,11,18,22-pentaazatetracyclo[14.4.1.13,7.110,14]tricosa-3(23),4,6,10(22),11,13-hexaene-2,8,8-trione] |  |  | +++ (+++ is >600%) | > 6.00
Cc1cccc(C)c1-c1cc2nc(n1)NS(=O)(=O)c1cccc(c1)C(=O)N1CCN(CCCC(C)(C)C)CC1CO2 (centres unmarked) [Compound 313] | > 6.00 | +++ (+++ is >60%) |  | 
Cc1cccc(C)c1-c1cc2nc(n1)NS(=O)(=O)c1cccc(c1)C(=O)N1CC(CC(C(=O)NCCC(C)(C)C)C1)O2 (centres unmarked) [Compound 321] | > 6.00 | ++ (++ is 30-60%) |  | 
Cc1cccc(C)c1-c1cc2nc(n1)NS(=O)(=O)c1cccc(c1)C(=O)N1CCNCC(C1)O2 (centres unmarked) [Compound 42, 12-(2,6-Dimethylphenyl)-15-oxa-8λ^6-thia-1,9,11,18,22-pentaazatetracyclo[14.4.1.13,7.110,14]tricosa-3(23),4,6,10(22),11,13-hexaene-2,8,8-trione] |  | ++ (++ is 30-60%) |  | 
Cc1cccc(C)c1-c1cc2nc(n1)NS(=O)(=O)c1cccc(c1)C(=O)N1CCN(C(=O)C3CCCCC3)C[C@@H]1CO2 [Compound 168, (8R)-6-Cyclohexanecarbonyl-13-(2,6-dimethylphenyl)-10-oxa-17λ^6-thia-3,6,14,16,23-pentaazatetracyclo[16.3.1.111,15.03,8]tricosa-1(21),11,13,15(23),18(22),19-hexaene-2,17,17-trione] | > 6.00 | +++ (+++ is >60%) |  | 
Cc1cccc(C)c1-c1cc2nc(n1)NS(=O)(=O)c1cccc(c1)C(=O)N1CCN(Cc3ccccc3)CC(O2)C1CC(C)C (single isomer, unassigned) [Compound 90, 18-Benzyl-12-(2,6-dimethylphenyl)-21-(2-methylpropyl)-15-oxa-8λ^6-thia-1,9,11,18,22-pentaazatetracyclo[14.4.1.13,7.110,14]tricosa-3(23),4,6,10(22),11,13-hexaene-2,8,8-trione] |  |  | +++ (+++ is >600%) | > 6.00
Cc1cccc(C)c1-c1cc2nc(n1)NS(=O)(=O)c1cccc(c1)C(=O)N1CCN(CCC3CCOCC3)C[C@@H]1CO2 [Compound 263] | 4.52 to 5.52 | ++ (++ is 30-60%) |  | 
Cc1cccc(C)c1-c1cc2nc(n1)NS(=O)(=O)c1cccc(c1)C(=O)N1CCN(C(=O)CC(C)(C)C)C[C@H](C1)O2 [Compound 81, (16R)-18-(3,3-Dimethylbutanoyl)-12-(2,6-dimethylphenyl)-15-oxa-8λ^6-thia-1,9,11,18,22-pentaazatetracyclo[14.4.1.13,7.110,14]tricosa-3(23),4,6,10,12,14(22)-hexaene-2,8,8-trione] |  |  | +++ (+++ is >600%) | 5.52 to 6.00
Cc1cccc(C)c1-c1cc2nc(n1)NS(=O)(=O)c1cccc(c1)C(=O)N1CC3CCCN(C)C3[C@@H](C1)O2 (single isomer, unassigned) [Compound 200, 12-(2,6-dimethylphenyl)-18-methyl-15-oxa-8λ^6-thia-1,9,11,18,25-pentaazapentacyclo[14.7.1.13,7.110,14.017,22]hexacosa-3,5,7(26),10(25),11,13-hexaene-2,8,8-trione] |  | + (+ is <300%) |  | 
Cc1cccc(C)c1-c1cc2nc(n1)NS(=O)(=O)c1cccc(c1)CCC(=O)N1Cc3ccccc3C(C1)O2 (centres unmarked) [Compound 345] |  | + (+ is <300%) |  | 
Cc1cccc(C)c1-c1cc2nc(n1)NS(=O)(=O)c1cccc(c1)C(=O)N1CC(O2)C(N2CCOCC2)C1 (centres unmarked) [Compound 323] | 4.52 to 5.52 | ++ (++ is 30-60%) |  | 
Cc1cccc(C)c1-c1cc2nc(n1)NS(=O)(=O)c1cccc(c1)C(=O)N1CCN(CC3CC3)C[C@@H]1CO2 [Compound 262] | 4.52 to 5.52 | +++ (+++ is >60%) |  | 
